As usually defined, the MIC is the least concentration at which growth counts as inhibited. Low values mean greater potency, high ones weaker potency.

Converted amounts (≈) assume the structure as drawn. Some results are limits rather than exact numbers.

From DBAASP come the findings set out here.

Common to all, as to assay: ≥ marks a high value that may be exact or a test limit, other limits are often not marked, values filed in µg/mL are converted to µM
For test [1], the system named is Staphylococcus aureus CGMCC 1.8721.
The subject of test [2] is Staphylococcus epidermidis CGMCC 1.4260.
The subject of test [3] is Klebsiella pneumoniae CGMCC 1.1736.
Test [4] has as its system Escherichia coli CGMCC 1.8732.
In test [5] the test system is Bacillus subtilis CGMCC 1.3376.
The subject of test [6] is Pseudomonas aeruginosa CGMCC 1.2421.
Test [7] has as its system Pseudomonas aeruginosa ATCC 27853.
Test [8] deals with Bacillus subtilis ATCC 23857.
In test [9] the test system is Staphylococcus aureus NCTC 10788.
Test [10] deals with Staphylococcus aureus ATCC 25923(RifR).
Test [11] relates to Enterococcus faecalis NCTC 12697.
Test [12] concerns Staphylococcus aureus ATCC 25923(GenR).
Test [13] deals with Candida albicans NCPF 1467.
Test [14] deals with Escherichia coli NCTC 10418.
In test [15] the test system is Klebsiella pneumoniae ATCC 700603.
Test [16] relates to Staphylococcus aureus NCTC 12493.
In test [17] the test system is Escherichia coli ATCC 25922(GenR).
In test [18] the test system is Escherichia coli ATCC 25922(RifR).
For test [19], the system named is Salmonella enterica AB2010185.
Test [20] has as its system Pseudomonas putida.
The test system of test [21] is Staphylococcus aureus AB94004.
The subject of test [22] is Bacillus magaterium AB90008.
For test [23], the system named is Micrococcus luteus AB2010179.
Test [24] relates to Enterobacter cloacae AB2010162.
Test [25] relates to Escherichia coli DH5alpha.
Test [26] has as its system Pseudomonas fluorescens.
In test [27] the test system is Klebsiella oxytoca AB2010143.
Test [28] has as its system Pseudomonas aeruginosa Q12-0581.
Test [29] concerns Acinetobacter baumannii Q12-0809.
Test [30] relates to Klebsiella pneumoniae NCTC 13442.
For test [31], the system named is Campylobacter jejuni NCTC 11351.
In test [32] the test system is Campylobacter jejuni.
The test system of test [33] is Acinetobacter baumannii Q13-0717.
Test [34] concerns Pseudomonas aeruginosa Q14-0208.
The subject of test [35] is Enterococcus faecalis JH-2-2.
Test [36] has as its system Staphylococcus aureus RN4220.
Test [37] deals with Salmonella typhimurium SL1344.
Test [38] relates to Staphylococcus aureus ATCC 29213.
For test [39], the system named is Pseudomonas aeruginosa Q14-0890.
The subject of test [40] is Escherichia coli.
The test system of test [41] is Escherichia coli K-12.
Test [42] relates to Staphylococcus aureus MRSA-15.
In test [43] the test system is Acinetobacter baumannii Q12-0867.
Test [44] has as its system Listeria monocytogenes NCTC 11994.
Test [45] deals with Staphylococcus aureus Q14-0320.
The test system of test [46] is Klebsiella pneumoniae Q14-0095.
Test [47] deals with Pseudomonas aeruginosa PAO1.

For `CC[C@H](C)[C@H](NC(=O)[C@H](C)N)C(=O)NCC(=O)N[C@@H](CO)C(=O)N[C@H](C(=O)N[C@@H](CC(C)C)C(=O)NCC(=O)N[C@@H](C)C(=O)N[C@@H](CC(C)C)C(=O)N[C@@H](C)C(=O)N[C@@H](CCCCN)C(=O)NCC(=O)N[C@@H](CC(C)C)C(=O)N1CCC[C@H]1C(=O)N[C@H](C(=O)N[C@@H](CC(C)C)C(=O)N[C@@H](CCCN=C(N)N)C(=O)N[C@@H](CO)C(=O)N[C@@H](Cc1c[nH]c2ccccc12)C(=O)N[C@H](C(=O)N[C@@H](CCCCN)C(=O)N[C@@H](CC(N)=O)C(=O)N[C@@H](CCCN=C(N)N)C(N)=O)[C@@H](C)CC)[C@@H](C)O)[C@@H](C)CC` [AIGSILGALAKGLPTLRSWIKNR], the MIC in test [1] was determined as 25 µM (≈ 60.9 µg/mL); in test [2], 6.25 µM (≈ 15.2 µg/mL); in [3] it was 25 µM (≈ 60.9 µg/mL); in test [4], 12.5 µM (≈ 30.4 µg/mL); in test [5], 3.13 µM (≈ 7.62 µg/mL); in [6] it was 12.5 µM (≈ 30.4 µg/mL).

As to `CC[C@H](C)[C@H](NC(=O)[C@@H]1CCCN1C(=O)[C@H](CC(C)C)NC(=O)[C@@H](N)Cc1ccccc1)C(=O)N[C@H](C(=O)N[C@@H](C)C(=O)N[C@@H](CCCCN)C(=O)N[C@@H](CC(C)C)C(=O)N[C@@H](CC(C)C)C(=O)N[C@@H](CO)C(=O)NCC(=O)N[C@@H](CC(C)C)C(=O)N[C@@H](CC(C)C)C(N)=O)C(C)C` [FLPIVAKLLSGLL], the MIC in [7] is 128 µM (≈ 177 µg/mL); in test [8], 4 µM (≈ 5.53 µg/mL); in test [9], 2 µM (≈ 2.77 µg/mL); in test [10], 16 µM (≈ 22.1 µg/mL); in test [11], 8 µM (≈ 11.1 µg/mL); in test [12], 8 µM (≈ 11.1 µg/mL). Besides, the MIC is 4 µM (≈ 5.53 µg/mL) in test [13]; 16 µM (≈ 22.1 µg/mL) in test [14]; greater than 128 µM in test [15]; 4 µM (≈ 5.53 µg/mL) in test [16]; no less than 32 µM in test [17]; no less than 32 µM in [18].

Consider `CC[C@H](C)[C@H](NC(=O)[C@H](CC(C)C)NC(=O)[C@H](CCCCN)NC(=O)[C@H](CC(C)C)NC(=O)[C@H](C)NC(=O)CNC(=O)[C@H](CCCCN)NC(=O)[C@H](C)NC(=O)[C@H](CC(C)C)NC(=O)[C@H](C)NC(=O)CNC(=O)[C@H](Cc1c[nH]c2ccccc12)NC(=O)[C@@H](N)Cc1ccccc1)C(=O)N1CCC[C@H]1C(=O)N[C@@H](CO)C(=O)N[C@@H](CC(C)C)C(=O)N[C@H](C(=O)N[C@@H](CO)C(=O)N[C@@H](CO)C(=O)N[C@@H](Cc1ccccc1)C(=O)N[C@H](C(=O)N[C@@H](CCCCN)C(=O)N[C@@H](CCCCN)C(=O)N[C@@H](CC(=O)O)C(N)=O)[C@@H](C)O)C(C)C` [FWGALAKGALKLIPSLVSSFTKKD], for which the MIC in test [19] was 30 µM (≈ 77.3 µg/mL); in test [20] it was 20 µM (≈ 51.5 µg/mL); in test [21], 5.6 µM (≈ 14.4 µg/mL); in [22] it was 30 µM (≈ 77.3 µg/mL); in test [23], 15.8 µM (≈ 40.7 µg/mL); in [24], no less than 45 µM. The MIC is 15.8 µM (≈ 40.7 µg/mL) in [25], no less than 40 µM in [26] and no less than 45 µM in [27].

In the case of `CC(C)[C@H](NC(=O)[C@@H](N)CCC(N)=O)C(=O)N[C@@H](CCCN=C(N)N)C(=O)N[C@@H](Cc1c[nH]c2ccccc12)C(=O)N[C@@H](Cc1c[nH]c2ccccc12)C(=O)NCC(=O)N[C@@H](CCCN=C(N)N)C(=O)N[C@@H](Cc1ccc(O)cc1)C(=O)N[C@@H](Cc1c[nH]c2ccccc12)C(=O)N[C@@H](CCCN=C(N)N)C(=O)N[C@@H](CCCN=C(N)N)C(=O)N[C@@H](CCCCN)C(=O)N[C@@H](Cc1c[nH]c2ccccc12)C(=O)N[C@@H](C)C(=O)N[C@H](C(=O)N[C@@H](CS)C(=O)N[C@@H](CCCN=C(N)N)C(=O)O)[C@@H](C)O` [QVRWWGRYWRRKWATCR], the MIC in test [7] is 53.4 µM (≈ 128 µg/mL); in test [28], no less than 53.4 µM; in test [29], 13.4 µM (≈ 32 µg/mL); in [30], no less than 53.4 µM; in test [31], no less than 53.4 µM; in test [32] it was no less than 53.4 µM. Besides, the MIC was 26.7 µM (≈ 64 µg/mL) in test [33]; 26.7 µM (≈ 64 µg/mL) in test [34]; no less than 107 µM in [35]; no less than 107 µM in test [36]; no less than 107 µM in test [37]; 26.7 µM (≈ 64 µg/mL) in test [38]. The MIC in test [39] was 13.4 µM (≈ 32 µg/mL); in [40], greater than 53.4 µM; in [41], no less than 107 µM; in [42] it was no less than 104 µM; in [43], 6.68 µM (≈ 16 µg/mL); in [15], 26.7 µM (≈ 64 µg/mL). Moreover, the MIC in [16] is 6.68 µM (≈ 16 µg/mL); in [44], no less than 53.4 µM; in test [45] it was 26.7 µM (≈ 64 µg/mL); in test [46] it was no less than 53.4 µM; in test [47] it was 214 µM (≈ 512 µg/mL).
